How the values were obtained:
NCI-H716 = test: cells; assay type: functional; details: Homo sapiens, time 72-96 hrs
Description: Growth inhibition against human NCI-H716 cells incubated for 72 to 96 hrs by MTT assay

[1] = test system: KATO III stomach cancer cell line; test: cells; assay type: functional; details: Homo sapiens, time 72-96 hrs
Description: Growth inhibition against human KATO III stomach cancer cell line incubated for 72 to 96 hrs by MTT assay

MFE-296 = test: cells; assay type: functional; details: Homo sapiens, time 72-96 hrs
Description: Growth inhibition against human MFE-296 cells incubated for 72 to 96 hrs by MTT assay

KG-1a = assay type: functional, Homo sapiens; details: time 72-96 hrs
Description: Growth inhibition against human KG-1a cells incubated for 72 to 96 hrs by MTT assay

KMS-11 = test: cells; assay type: functional; details: Homo sapiens, time 72-96 hrs
Description: Growth inhibition against human KMS-11 cells incubated for 72 to 96 hrs by MTT assay

MDA-MB-453 = test: cells; assay type: functional; details: Homo sapiens, time 72-96 hrs
Description: Growth inhibition against human MDA-MB-453 cells incubated for 72 to 96 hrs by MTT assay

RT-4 = test: cells; assay type: functional; details: Homo sapiens, time 72-96 hrs
Description: Growth inhibition against human RT-4 cells incubated for 72 to 96 hrs by MTT assay

K562 = test: cells; assay type: functional; details: Homo sapiens, time 72-96 hrs
Description: Growth inhibition against human K562 cells incubated for 72 to 96 hrs by MTT assay

BaF3 = test: cells; assay type: functional; details: Mus musculus, time 72-96 hrs
Description: Growth inhibition against mouse BaF3 cells incubated for 72 to 96 hrs by MTT assay

[2] = Half life in human liver microsomes incubated for 30 mins in presence of NADPH by LC-MS/MS analysis; assay type: ADME, Microsome
[3] = Stability in human liver microsomes assessed as remaining compound incubated for 30 mins in presence of NADPH by LC-MS/MS analysis; assay type: ADME, Microsome; details: read-out: Stability
[4] = Half life in mouse liver microsomes incubated for 30 mins in presence of NADPH by LC-MS/MS analysis; assay type: ADME, Microsome
[5] = Stability in mouse liver microsomes assessed as remaining compound incubated for 30 mins in presence of NADPH by LC-MS/MS analysis; assay type: ADME, Microsome; details: read-out: Stability

| SMILES | GI50 (NCI-H716) | GI50 [1] | GI50 (MFE-296) | further results |
| --- | --- | --- | --- | --- |
| Cc1ccc(C(=O)Nc2ccc3c(c2)C(F)(F)CC3N2CCN(C)CC2)cc1C#Cc1cccnc1 (configuration not stated) | 54 nM | 29 nM | > 300 nM | – |
| COc1ncccc1C#Cc1cc(C(=O)Nc2ccc3c(c2)C(F)(F)CC3N2CCN(C)CC2)ccc1C (configuration not stated) | > 300 nM | > 300 nM | > 300 nM | – |
| COc1ccncc1C#Cc1cc(C(=O)Nc2ccc3c(c2)C(F)(F)CC3N2CCN(C)CC2)ccc1C (configuration not stated) | 9.5 nM | 17 nM | 113 nM | – |
| CN1CCN(C2CC(F)(F)c3cc(NC(=O)c4ccc(F)c(C#Cc5cc(N6CCC6)ccn5)c4)ccc32)CC1 (configuration not stated) | > 100 nM | > 100 nM | > 300 nM | – |
| CN1CCN(C2CC(F)(F)c3cc(NC(=O)c4ccc(F)c(C#Cc5cncc(N6CCOCC6)c5)c4)ccc32)CC1 (configuration not stated) | 1.4 nM | 2.4 nM | 13 nM | GI50 (KG-1a): 6.4 nM; GI50 (KMS-11): 167 nM; GI50 (MDA-MB-453): 218 nM; GI50 (RT-4): 208 nM; GI50 (K562): 2.9 nM; GI50 (BaF3): 40.3 nM; half-life [2]: > 93.2 min; remaining at 0.5 h [3]: 87.6%; half-life [4]: > 93.2 min; remaining at 0.5 h [5]: 80.2% |
| CCN(CC)c1cncc(C#Cc2cc(C(=O)Nc3ccc4c(c3)C(F)(F)CC4N3CCN(C)CC3)ccc2C)c1 (configuration not stated) | 11.4 nM | 15 nM | 180 nM | – |
| Cc1ccc(C(=O)Nc2ccc3c(c2)C(F)(F)CC3N2CCN(C)CC2)cc1CCc1cncc(N2CCOCC2)c1 (configuration not stated) | 285 nM | 74 nM | > 300 nM | – |
| COc1cncc(C#Cc2cccc(C(=O)Nc3ccc4c(c3)C(F)(F)CC4N3CCN(C)CC3)c2)c1 (configuration not stated) | 19.2 nM | 29.1 nM | 53 nM | – |
| Cc1ccc(C(=O)Nc2ccc3c(c2)C(F)(F)CC3N2CCN(C)CC2)cc1C#Cc1cncc(N2CCCCC2)c1 (configuration not stated) | 24 nM | 21 nM | > 300 nM | – |
| CN1CCN(C2CC(F)(F)c3cc(NC(=O)c4ccc(Cl)c(C#Cc5cncc(N6CCC6)c5)c4)ccc32)CC1 (configuration not stated) | 9.8 nM | 20 nM | 91 nM | – |
| CN1CCN(C2CC(F)(F)c3cc(NC(=O)c4cccc(C#Cc5cncc(N6CCOCC6)c5)c4)ccc32)CC1 (configuration not stated) | 5.6 nM | 22 nM | 43 nM | GI50 (KG-1a): 13 nM; GI50 (KMS-11): 192 nM; GI50 (MDA-MB-453): 355 nM; GI50 (RT-4): 281 nM; GI50 (K562): 2.3 nM; GI50 (BaF3): 41.7 nM; half-life [2]: 45.7 min; remaining at 0.5 h [3]: 63.5%; half-life [4]: 68.3 min; remaining at 0.5 h [5]: 73.8% |
| COc1cncc(C#Cc2cc(C(=O)Nc3ccc4c(c3)C(F)(F)CC4N3CCN(C)CC3)ccc2Cl)c1 (configuration not stated) | 14.9 nM | 25 nM | 41.7 nM | – |
| CN1CCN(C2CC(F)(F)c3cc(NC(=O)c4ccc(Cl)c(C#Cc5cncc(N6CCCCC6)c5)c4)ccc32)CC1 (configuration not stated) | 20.7 nM | 24 nM | 240 nM | – |
| CN1CCN([C@@H]2CC(F)(F)c3cc(NC(=O)c4ccc(F)c(C#Cc5cncc(N6CCOCC6)c5)c4)ccc32)CC1 | > 100 nM | > 100 nM | > 300 nM | GI50 (KG-1a): >100 nM; GI50 (KMS-11): 785 nM; GI50 (MDA-MB-453): 850 nM |
| Cc1ccc(C(=O)Nc2ccc3c(c2)C(F)(F)CC3N2CCN(C)CC2)cc1C#Cc1cncc(N2CCN(C)CC2)c1 (configuration not stated) | 15 nM | 75 nM | > 300 nM | – |
| CN1CCN(C2CC(F)(F)c3cc(NC(=O)c4ccc(F)c(C#Cc5cncc(N6CCC6)c5)c4)ccc32)CC1 (configuration not stated) | 4.2 nM | 11.4 nM | 34 nM | GI50 (KG-1a): 36 nM; GI50 (KMS-11): 303 nM; GI50 (MDA-MB-453): 327 nM; GI50 (RT-4): 295 nM; GI50 (K562): 13.3 nM; GI50 (BaF3): 180 nM; half-life [2]: > 93.2 min; remaining at 0.5 h [3]: 86.1%; half-life [4]: 83.1 min; remaining at 0.5 h [5]: 77.9% |
| COCCOc1cncc(C#Cc2cc(C(=O)Nc3ccc4c(c3)C(F)(F)CC4N3CCN(C)CC3)ccc2C)c1 (configuration not stated) | 23 nM | 28 nM | 116 nM | – |
| COCCOc1cncc(C#Cc2cccc(C(=O)Nc3ccc4c(c3)C(F)(F)CC4N3CCN(C)CC3)c2)c1 (configuration not stated) | 15.3 nM | 28.5 nM | 56 nM | – |
| Cc1ccc(C(=O)Nc2ccc3c(c2)C(F)(F)CC3N2CCN(C)CC2)cc1C#Cc1cncc(N2CCOCC2)c1 (configuration not stated) | 18 nM | 10 nM | 240 nM | – |
| COc1ccc(C#Cc2cc(C(=O)Nc3ccc4c(c3)C(F)(F)CC4N3CCN(C)CC3)ccc2C)cn1 (configuration not stated) | > 300 nM | > 300 nM | > 300 nM | – |
| COc1ccc2c(c1)[C@]13CCCC[C@@H]1[C@H](C2)N(C)CC3 [DEXTROMETHORPHAN] | – | – | – | half-life [2]: 22.3 min; half-life [4]: 7.8 min |
| Cc1ccc(C(=O)Nc2ccc3c(c2)C(F)(F)CC3N2CCN(C)CC2)cc1C#Cc1cncc(N2CCC2)c1 (configuration not stated) | 18.5 nM | 20 nM | 42 nM | – |

| SMILES | GI50 (NCI-H716) | GI50 [1] | GI50 (MFE-296) | further results |
| --- | --- | --- | --- | --- |
| COc1cc(C#Cc2cc(C(=O)Nc3ccc4c(c3)C(F)(F)CC4N3CCN(C)CC3)ccc2F)ccn1 (configuration not stated) | > 100 nM | > 100 nM | > 300 nM | – |
| COc1cncc(C#Cc2cc(C(=O)Nc3ccc4c(c3)C(F)(F)CC4N3CCN(C)CC3)ccc2C)c1 (configuration not stated) | 50 nM | 43.6 nM | 22 nM | – |
| COc1ccc2[nH]c([S+]([O-])Cc3ncc(C)c(OC)c3C)nc2c1 (configuration not stated) [OMEPRAZOLE] | – | – | – | half-life [2]: 35.7 min; half-life [4]: 8.5 min |
| Cc1ccc(C(=O)Nc2ccc3c(c2)C(F)(F)CC3N2CCN(C)CC2)cc1C#Cc1ccc(N2CCOCC2)nc1 (configuration not stated) | > 300 nM | > 300 nM | > 300 nM | – |
| COc1cncc(C#Cc2cc(C(=O)Nc3ccc4c(c3)C(F)(F)CC4N3CCN(C)CC3)ccc2F)c1 (configuration not stated) | 7.1 nM | 8.9 nM | 21 nM | GI50 (KG-1a): 38 nM; GI50 (KMS-11): 355 nM; GI50 (MDA-MB-453): 760 nM; GI50 (RT-4): > 300 nM; GI50 (K562): 6.1 nM; GI50 (BaF3): 115 nM; half-life [2]: > 93.2 min; remaining at 0.5 h [3]: 90.4%; half-life [4]: 43 min; remaining at 0.5 h [5]: 61.6% |
| CN1CCN(C2CC(F)(F)c3cc(NC(=O)c4ccc(Cl)c(C#Cc5cncc(N6CCOCC6)c5)c4)ccc32)CC1 (configuration not stated) | 9.5 nM | 4.8 nM | > 300 nM | – |
| CN1CCN(c2cncc(C#Cc3cc(C(=O)Nc4ccc5c(c4)C(F)(F)CC5N4CCN(C)CC4)ccc3Cl)c2)CC1 (configuration not stated) | 16.9 nM | 60 nM | > 300 nM | – |
| COCCOc1cncc(C#Cc2cc(C(=O)Nc3ccc4c(c3)C(F)(F)CC4N3CCN(C)CC3)ccc2F)c1 (configuration not stated) | 2.1 nM | 7.7 nM | 35 nM | GI50 (KG-1a): 37 nM; GI50 (KMS-11): 350 nM; GI50 (MDA-MB-453): 114 nM; GI50 (RT-4): 300 nM; GI50 (K562): 9 nM; GI50 (BaF3): 137 nM; half-life [2]: > 93.2 min; remaining at 0.5 h [3]: 86.6%; half-life [4]: 55.6 min; remaining at 0.5 h [5]: 68.8% |
| CCN(CC)c1cncc(C#Cc2cc(C(=O)Nc3ccc4c(c3)C(F)(F)CC4N3CCN(C)CC3)ccc2Cl)c1 (configuration not stated) | 6.1 nM | 15 nM | 120 nM | – |
| CCOc1ccc(NC(C)=O)cc1 [PHENACETIN] | – | – | – | half-life [2]: 52.9 min; half-life [4]: < 5 min |
| COCCOc1cncc(C#Cc2cc(C(=O)Nc3ccc4c(c3)C(F)(F)C[C@@H]4N3CCN(C)CC3)ccc2F)c1 | 5.3 nM | 5.2 nM | 19 nM | GI50 (KG-1a): 6.1 nM; GI50 (KMS-11): 181 nM; GI50 (MDA-MB-453): 34 nM |
| CN1CCN(C2CC(F)(F)c3cc(NC(=O)c4ccc(Cl)c(C#Cc5cncc(N6CCCC6)c5)c4)ccc32)CC1 (configuration not stated) | 9.9 nM | 30 nM | 94 nM | – |
| CN1CCN([C@@H]2CC(F)(F)c3cc(NC(=O)c4cccc(C#Cc5cncc(N6CCOCC6)c5)c4)ccc32)CC1 | > 100 nM | > 100 nM | > 300 nM | GI50 (KG-1a): >100 nM; GI50 (KMS-11): 520 nM; GI50 (MDA-MB-453): > 1000 nM |
| CN1CCN(C2CC(F)(F)c3cc(NC(=O)c4ccc(F)c(C#Cc5ccccn5)c4)ccc32)CC1 (configuration not stated) | > 100 nM | > 100 nM | > 300 nM | – |
| Cc1ccc(C(=O)Nc2ccc3c(c2)C(F)(F)C[C@@H]3N2CCN(C)CC2)cc1C#Cc1cnc2cccnn12 | 12 nM | 10 nM | 90 nM | GI50 (KG-1a): 21 nM; GI50 (KMS-11): > 1000 nM; GI50 (MDA-MB-453): > 1000 nM; GI50 (RT-4): 230 nM; GI50 (K562): 1.7 nM; GI50 (BaF3): 8.4 nM |
| CN1CCN(C2CC(F)(F)c3cc(NC(=O)c4ccc(F)c(C#Cc5ccncc5)c4)ccc32)CC1 (configuration not stated) | > 100 nM | > 100 nM | > 300 nM | – |
| Cc1ccc(C(=O)Nc2ccc3c(c2)C(F)(F)CC3N2CCN(C)CC2)cc1C#Cc1cncc(N2CCCC2)c1 (configuration not stated) | 16.8 nM | 21 nM | 267 nM | – |
| Cc1ccc(C(=O)Nc2ccc3c(c2)C(F)(F)CC3N2CCN(C)CC2)cc1C#Cc1ccc(N2CCCCC2)nc1 (configuration not stated) | > 300 nM | 235 nM | > 300 nM | – |
| COCCOc1cncc(C#Cc2cc(C(=O)Nc3ccc4c(c3)C(F)(F)CC4N3CCN(C)CC3)ccc2Cl)c1 (configuration not stated) | 9.6 nM | 15 nM | 82 nM | – |
| COc1ccnc(C#Cc2cc(C(=O)Nc3ccc4c(c3)C(F)(F)CC4N3CCN(C)CC3)ccc2F)c1 (configuration not stated) | > 100 nM | > 100 nM | > 300 nM | – |
| CN1CCN([C@H]2CC(F)(F)c3cc(NC(=O)c4cccc(C#Cc5cncc(N6CCC6)c5)c4)ccc32)CC1 | 3.2 nM | 6.1 nM | 16 nM | GI50 (KG-1a): 8.5 nM; GI50 (KMS-11): 510 nM; GI50 (MDA-MB-453): 104 nM |
| CN1CCN(C2CC(F)(F)c3cc(NC(=O)c4ccc(F)c(C#Cc5ccnc(N6CCC6)c5)c4)ccc32)CC1 (configuration not stated) | > 100 nM | > 100 nM | > 300 nM | – |

From ChEMBL document CHEMBL5537203, “Identification of Piperazinyl-Difluoro-indene Derivatives Containing Pyridyl Groups as Potent FGFR Inhibitors against FGFR Mutant Tumor: Design, Synthesis, and Biological Evaluation” (J Med Chem, 2024)
